Results from PubChem BioAssay AID328 (DTP/NCI, 2004).
Where “and” joins values, the source holds several entries; their conditions need not be identical. Equal values may be shown once. Inconclusive results and toxic doses are left out. Rule for the calls: active = survival T/C of 150% or more; inactive = T/C below 125% in these data.

Tested on: BDF1 mice, P388 leukemia ip, median survival T/C
Experiment: NCI In Vivo Anticancer Drug Screen. Data for tumor model P388 Leukemia (intraperitoneal) in B6D2F1 (BDF1) mice
Details: endpoint: median survival time, higher = longer survival
Summary of the method: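 Mice carrying the transplantable tumour receive compound or vehicle. Survival is followed in each arm, and the treated measure is divided by the vehicle measure.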

[1] = dose: 50.0 mg/kg/injection, schedule: Q04DX003 (ip), vehicle: saline with Tween-80
[2] = dose: 100.0 mg/kg/injection, schedule: Q04DX003 (ip), vehicle: saline with Tween-80
[3] = dose: 50.0 mg/kg/injection, schedule: Q01DX009 (ip), vehicle: saline with Tween-80
[4] = dose: 100.0 mg/kg/injection, schedule: Q04DX003 (ip), vehicle: Klucel (hydroxypropylcellulose) (HPC)
[5] = dose: 200.0 mg/kg/injection, schedule: Q04DX003 (ip), vehicle: Klucel (hydroxypropylcellulose) (HPC)
[6] = dose: 100.0 mg/kg/injection, schedule: Q01DX009 (ip), vehicle: Klucel (hydroxypropylcellulose) (HPC)
[7] = dose: 200.0 mg/kg/injection, schedule: Q01DX009 (ip), vehicle: Klucel (hydroxypropylcellulose) (HPC)

Measured: T/C

CC(C)=C(CO)CCC(C)C
inactive: [1] 109 % of control | [2] 122 % of control | dose: 200.0 mg/kg/injection, schedule: Q04DX003 (ip), vehicle: saline with Tween-80 118 % of control

CC1(C)CC2(C)OC2C2(C1)N=NC(=Nc1ccccc1)O2 (stereo not drawn)
inactive: [3] 117 % of control

C[N-]N(C)C(=O)[S-].C[N-]N(C)C(=O)[S-].C[N-]N(C)C(=O)[S-].[Co]
inactive: [2] 105 % of control

Cc1ccc(S(=O)(=O)NN=C(c2ccccc2)c2ccccc2)cc1
inactive: dose: 12.5 mg/kg/injection, schedule: Q04DX003 (ip), vehicle: Klucel (hydroxypropylcellulose) (HPC) 98 % of control | dose: 25.0 mg/kg/injection, schedule: Q04DX003 (ip), vehicle: Klucel (hydroxypropylcellulose) (HPC) 103 % of control | dose: 50.0 mg/kg/injection, schedule: Q04DX003 (ip), vehicle: Klucel (hydroxypropylcellulose) (HPC) 103 % of control | [4] 97 % of control | [5] 97 % of control

FC(F)c1nc2nc(Cl)c(Cl)nc2[nH]1
inactive: dose: 12.5 mg/kg/injection, schedule: Q01DX009 (ip), vehicle: saline with Tween-80 110 % of control | [3] 120 % of control | [1] 100 % of control | dose: 75.0 mg/kg/injection, schedule: Q01DX009 (ip), vehicle: saline with Tween-80 103 % of control | [2] 109 % of control

O=Cc1ccc(N(c2ccccc2)c2ccccc2)cc1
inactive: [4] 111 % of control | [5] 111 % of control | dose: 400.0 mg/kg/injection, schedule: Q04DX003 (ip), vehicle: Klucel (hydroxypropylcellulose) (HPC) 94 % of control

CCO/C=C1\SC(=S)N(c2ccccc2OC)C1=O
inactive: dose: 25.0 mg/kg/injection, schedule: Q01DX009 (ip), vehicle: Klucel (hydroxypropylcellulose) (HPC) 100 % of control | dose: 50.0 mg/kg/injection, schedule: Q01DX009 (ip), vehicle: Klucel (hydroxypropylcellulose) (HPC) 112 % of control | dose: 88.0 mg/kg/injection, schedule: Q01DX009 (ip), vehicle: Klucel (hydroxypropylcellulose) (HPC) 103 % of control | dose: 88.0 mg/kg/injection, schedule: Q01DX009 (ip), vehicle: saline with Tween-80 122 % of control | [6] 94 % of control | dose: 132.0 mg/kg/injection, schedule: Q01DX009 (ip), vehicle: Klucel (hydroxypropylcellulose) (HPC) 103 % of control | [7] 94 % of control and 123 % of control | dose: 300.0 mg/kg/injection, schedule: Q01DX009 (ip), vehicle: Klucel (hydroxypropylcellulose) (HPC) 112 % of control

CCCCCCCCCC(=O)NC(CN1CCOCC1)C(=O)c1ccccc1 (stereo not drawn)
inactive: dose: 12.5 mg/kg/injection, schedule: Q04DX003 (ip), vehicle: saline with Tween-80 95 % of control | dose: 25.0 mg/kg/injection, schedule: Q04DX003 (ip), vehicle: saline with Tween-80 98 % of control | [1] 100 % of control

COC(=O)CCCNC(=O)/C=C1/c2cc(OC)c(OC)cc2CCC1S(=O)(=O)OC (stereo not drawn)
inactive: dose: 100.0 mg/kg/injection, schedule: Q01DX009 (ip), vehicle: saline 104 % of control | dose: 200.0 mg/kg/injection, schedule: Q01DX009 (ip), vehicle: saline 90 % of control | dose: 400.0 mg/kg/injection, schedule: Q01DX009 (ip), vehicle: saline 100 % of control

COC(=O)[C@@]12OC[C@]34[C@H]([C@@H](O)[C@@H]1O)[C@@]1(C)CC(=O)C(OC(=O)CC(=O)OC5=C(C)[C@@H]6C[C@H]7OC(=O)[C@H](OC(=O)C=C(C)C)[C@H]8[C@]9(C(=O)OC)OC[C@]78[C@H]([C@@H](O)[C@@H]9O)[C@@]6(C)CC5=O)=C(C)[C@@H]1C[C@H]3OC(=O)[C@H](OC(=O)C=C(C)C)[C@@H]24
inactive: dose: 0.18 mg/kg/injection, schedule: Q01DX009 (ip), vehicle: distilled water + Tween-80 104 % of control | dose: 0.37 mg/kg/injection, schedule: Q01DX009 (ip), vehicle: distilled water + Tween-80 104 % of control | dose: 0.75 mg/kg/injection, schedule: Q01DX009 (ip), vehicle: distilled water + Tween-80 100 % of control | dose: 1.5 mg/kg/injection, schedule: Q01DX009 (ip), vehicle: distilled water + Tween-80 98 % of control | dose: 3.0 mg/kg/injection, schedule: Q01DX009 (ip), vehicle: distilled water + Tween-80 111 % of control

NNC(=O)Cc1ccccc1
inactive: dose: 25.0 mg/kg/injection, schedule: Q04DX003 (ip), vehicle: saline sonified 110 % of control | dose: 50.0 mg/kg/injection, schedule: Q04DX003 (ip), vehicle: saline sonified 105 % of control | dose: 100.0 mg/kg/injection, schedule: Q04DX003 (ip), vehicle: saline sonified 110 % of control

O=C1c2ccccc2C(=O)C1(Cl)C(Cl)c1ccc([N+](=O)[O-])cc1 (stereo not drawn)
inactive: [6] 105 % of control | [7] 90 % of control | dose: 400.0 mg/kg/injection, schedule: Q01DX009 (ip), vehicle: Klucel (hydroxypropylcellulose) (HPC) 100 % of control
